Laboratory results as given in patent publication EP4741386A1 (Jiangsu Yahong Meditech Co., Ltd., priority 2023, dated 2025).
Each block holds one compound with its values, some of them ahead of it.

How the values were obtained:
MDA-MB-436 = assay: CTG experiment for cell viability (CellTiter-Glo, 96-well plate, 7 days); format: cell-based; details: MDA-MB-436 cells, 7 days culture with compound
Method in brief: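 Viability was read by CellTiter-Glo luminescence after 10 min at room temperature, once the compound-containing medium had been replaced with PBS. Before that, MDA-MB-436 cells grown in DMEM were exposed to compounds for 7 days at 37°C. Curve fitting followed the enzyme assay method.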

[1] = target: T1, Recombinant human His6-USP1/His6-UAF1 complex protein (Homo sapiens, UniProt O94782); assay: In vitro inhibitory activity against USP1 (Ubiquitin Rhodamine 110 fluorescence detection, 384-well plate); format: biochemical; details: Ub-Rho substrate, 1 hour pre-incubation, read after 30 minutes
T1 construct: His6; purchased R&D E-568-050
Method in brief: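 Compounds, kept as 50 mM DMSO stocks, were acoustically dispensed into modified Tris buffer. Inhibition of recombinant human His6-USP1/His6-UAF1 was read by fluorescence from cleavage of Ub-Rho110 substrate.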

[2] = Homo sapiens, MDA-MB-436, 168 h

T1 sequence (O94782 whole entry): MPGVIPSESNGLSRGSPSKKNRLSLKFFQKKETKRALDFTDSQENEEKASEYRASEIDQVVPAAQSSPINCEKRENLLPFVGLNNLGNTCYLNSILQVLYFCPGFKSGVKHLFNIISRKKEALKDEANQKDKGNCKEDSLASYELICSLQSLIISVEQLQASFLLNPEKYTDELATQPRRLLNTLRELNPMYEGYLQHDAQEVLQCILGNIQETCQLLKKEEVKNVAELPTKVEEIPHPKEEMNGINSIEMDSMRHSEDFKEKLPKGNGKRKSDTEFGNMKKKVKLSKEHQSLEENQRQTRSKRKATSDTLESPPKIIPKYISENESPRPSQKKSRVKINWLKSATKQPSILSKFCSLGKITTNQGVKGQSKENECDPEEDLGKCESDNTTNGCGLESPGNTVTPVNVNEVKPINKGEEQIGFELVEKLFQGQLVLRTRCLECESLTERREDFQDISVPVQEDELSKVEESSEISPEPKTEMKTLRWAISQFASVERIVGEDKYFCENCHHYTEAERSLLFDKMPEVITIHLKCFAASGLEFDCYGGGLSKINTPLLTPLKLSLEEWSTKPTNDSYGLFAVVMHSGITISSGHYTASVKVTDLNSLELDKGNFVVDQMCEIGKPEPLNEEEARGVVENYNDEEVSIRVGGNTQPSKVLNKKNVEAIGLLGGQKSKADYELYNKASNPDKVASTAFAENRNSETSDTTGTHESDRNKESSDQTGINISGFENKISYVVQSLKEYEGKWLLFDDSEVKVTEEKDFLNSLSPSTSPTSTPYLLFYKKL
T1 sequence (Q8TAF3 whole entry partner): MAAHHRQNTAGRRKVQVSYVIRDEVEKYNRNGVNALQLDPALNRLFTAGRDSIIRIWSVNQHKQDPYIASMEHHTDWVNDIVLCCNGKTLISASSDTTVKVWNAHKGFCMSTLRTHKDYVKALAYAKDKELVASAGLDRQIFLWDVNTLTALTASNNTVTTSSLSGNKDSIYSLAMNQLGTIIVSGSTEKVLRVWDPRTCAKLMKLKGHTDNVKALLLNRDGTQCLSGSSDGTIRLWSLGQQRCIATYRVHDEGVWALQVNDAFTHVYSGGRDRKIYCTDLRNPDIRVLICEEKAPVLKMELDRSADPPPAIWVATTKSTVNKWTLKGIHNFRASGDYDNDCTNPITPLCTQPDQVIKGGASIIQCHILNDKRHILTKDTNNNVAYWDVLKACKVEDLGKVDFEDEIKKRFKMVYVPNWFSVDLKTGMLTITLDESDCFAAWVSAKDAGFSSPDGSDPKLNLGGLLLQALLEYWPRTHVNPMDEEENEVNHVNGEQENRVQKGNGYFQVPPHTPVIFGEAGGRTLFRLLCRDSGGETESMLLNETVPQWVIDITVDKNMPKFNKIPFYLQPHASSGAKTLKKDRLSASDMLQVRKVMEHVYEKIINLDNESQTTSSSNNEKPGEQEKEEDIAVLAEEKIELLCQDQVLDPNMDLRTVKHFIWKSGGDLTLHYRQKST

SMILES: [2H]C([2H])([2H])N(c1nc(-c2c(OC)ncnc2C2CC2)ncc1OC)C(C)c1ccc(-c2nc(C(F)(F)F)cn2C)cc1 (stereo not drawn) [Example S3, 4'-Cyclopropyl-5,6'-dimethoxy-N-(methyl-D3)-N-(1-(4-(1-methyl-4-(trifluoromethyl)-1 H-imidazol-2-yl)phenyl)ethyl)-[2,5'-bipyrimidin]-4-amine]
IC50 (MDA-MB-436; [2]): 0.3 nM
IC50 [1]: 2.7 nM

SMILES: COc1cnc(-c2c(OC)ncnc2C2CC2)nc1N(C)CC12C3C4C1C1C2C3C41c1nc(C(F)(F)F)cn1C (stereo not drawn) [Example S51, 4'-cyclopropyl-5,6'-dimethoxy-N-methyl-N-((4-(1-methyl-4-(trifluoromethyl)-1H-imidazol-2-yl)cuban-1-yl)methyl)-[2,5'-bipyrimidin]-4-amine]
IC50 (MDA-MB-436): 5.8 nM
IC50 [1]: 3.8 nM

SMILES: COc1cc(CNc2nc(-c3c(OC)ncnc3C3CC3)ncc2OC)ccc1-c1nc(C(F)(F)F)cn1C [Example 101, 4'-Cyclopropyl-5,6'-dimethoxy-N-(3-methoxy-4-(1-methyl-4-(trifluoromethyl)-1H-imidazol-2-yl)benzyl)-[2,5'-bipyrimidin]-4-amine]
IC50 (MDA-MB-436; [2]): 99.1 nM
IC50 [1]: 15 nM

SMILES: COc1cnc(-c2ccccc2C2CC2)nc1NCc1ccc(-c2nc(C(F)(F)F)cn2C)cc1 [Example 169, 2-(2-Cyclopropylphenyl)-5-methoxy-N-(4-(1-methyl-4-(trifluoromethyl)-1H-imidazol-2-yl)benzyl)pyrimidin-4-amine]
IC50 (MDA-MB-436; [2]): 0.4 nM
IC50 [1]: 0.8 nM

SMILES: CC(C)c1ccccc1-c1nc(NCc2ccc(-c3nc(C(F)(F)F)cn3C)cc2)c2ncccc2n1 [Example 40, 2-(2-Isopropylphenyl)-N-(4-(1-methyl-4-(trifluoromethyl)-1H-imidazol-2-yl)benzyl)pyrido[3,2-d]pyrimidin-4-amine]
IC50 (MDA-MB-436; [2]): 21.4 nM
IC50 [1]: 2.3 nM

SMILES: COc1cnc(-c2c(OC)ncnc2C2CC2)nc1N(Cc1ccc(-c2nc(C(F)(F)F)cn2C)cc1)OC [Example 142, N-(4'-Cyclopropyl-5,6'-dimethoxy-[2,5'-bipyrimidin]-4-yl)-O-methyl-N-(4-(1-methyl-4-(trifluoromethyl)-1H-imidazol-2-yl)benzyl)hydroxylamine]
IC50 (MDA-MB-436; [2]): 50 nM
IC50 [1]: 25 nM

SMILES: CC(C)c1ccccc1-c1ncc(C(F)(F)F)c(NCc2ccc(-c3nc(C(F)(F)F)cn3C)cc2)n1 [Example 17, 2-(2-Isopropylphenyl)-N-(4-(1-methyl-4-(trifluoromethyl)-1H-imidazol-2-yl)benzyl)-5-(trifluoromethyl)pyrimidin-4-amine]
IC50 (MDA-MB-436; [2]): 103 nM
IC50 [1]: 3.9 nM

SMILES: COc1ncnc(C2CC2)c1-c1nc(NCc2ccc(-n3nc(C(F)(F)F)cc3C)cc2)c2occc2n1 [Example 50, 2-(4-Cyclopropyl-6-methoxypyrimidin-5-yl)-N-(4-(5-methyl-3-(trifluoromethyl)-1H-pyrazol-1-yl)benzyl)furo[3,2-d]pyrimidin-4-amine]
IC50 (MDA-MB-436; [2]): 0.022 nM
IC50 [1]: 5.2 nM

SMILES: COc1cnc(-c2c(OC)cnn2C(C)C)nc1NCC1CCN(c2nc(C(F)(F)F)cn2C)CC1 [Example 179, 2-(1-Isopropyl-4-methoxy-1H-pyrazol-5-yl)-5-methoxy-N-((1-(1-methyl-4-(trifluoromcthyl)-1H-imidazol-2-yl)piperidin-4-yl)methyl)pyrimidin-4-amine]
IC50 (MDA-MB-436; [2]): 197 nM
IC50 [1]: 56 nM

SMILES: COc1cnc(-c2c(Cl)cnn2C2CC2)nc1N(C)Cc1ccc(-c2nc(C(F)(F)F)cn2C)cc1 [Example 191, 2-(4-Chloro-1-cyclopropyl-1H-pyrazol-5-yl)-5-methoxy-N-methyl-N-(4-(1-methyl-4-(trifluoromethyl)-1H-imidazol-2-yl)benzyl)pyrimidin-4-amine]
IC50 (MDA-MB-436; [2]): 10.7 nM
IC50 [1]: 4.3 nM

SMILES: C#Cc1cnc(-c2c(C)cnn2C(C)C)nc1NCc1ccc(-c2nc(C(F)(F)F)cn2C)cc1 [Example 203, 5-Ethynyl-2-(1-isopropyl-4-methyl-1H-pyrazol-5-yl)-N-(4-(1-methyl-4-(trifluoromethyl)-1H-imidazol-2-vl)benzyl)pyrimidin-4-amine]
IC50 (MDA-MB-436; [2]): 3.3 nM
IC50 [1]: 1.4 nM

Continued, values first:

IC50 (MDA-MB-436; [2]): 6 nM
IC50 [1]: 7.4 nM
SMILES: COc1cnn(C(C)C)c1-c1nc(NCc2ccc(-n3nc(C(F)(F)F)cc3C)cc2)c2occc2n1 [Example 182, 2-(1-Isopropyl-4-methoxy-1H-pyrazol-5-yl)-N-(4-(5-methyl-3-(trifluoromethyl)-1H-pyrazol-1-yl)benzyl)furo[3,2-d]pyrimidin-4-amine]

IC50 (MDA-MB-436; [2]): 169 nM
IC50 [1]: 20 nM
SMILES: COc1ncnc(C2CC2)c1-c1nc(NCc2ccc(-c3nc(C(F)F)cn3C)cc2)c2occc2n1 [Example 123, 2-(4-Cyclopropyl-6-methoxypyrimidin-5-yl)-N-(4-(4-(difluoromethyl)-1-methyl-1H-imidazol-2-yl)benzyl)furo[3,2-d]pyrimidin-4-amine]

IC50 (MDA-MB-436; [2]): 34.1 nM
IC50 [1]: 3.2 nM
SMILES: COc1ncnc(C2CC2)c1-c1ncc(OC(F)F)c(NCc2ccc(-c3nc(C(F)(F)F)cn3C)cc2)n1 [Example 134, 4'-Cyclopropyl-5-(difluoromethoxy)-6'-methoxy-N-(4-(1-methyl-4-(trifluoromethyl)-1H-imidazol-2-yl)benzyl)-[2,5'-bipyrimidin]-4-amine]

IC50 (MDA-MB-436; [2]): 731 nM
IC50 [1]: 19 nM
SMILES: COc1cnc(-c2cccc3c2N(C)CC3)nc1NCc1ccc(-c2nc(C(F)(F)F)cn2C)cc1 [Example 145, 5-Methoxy-N-(4-(1-methyl-4-(trifluoromethyl)-1H-imidazol-2-yl)benzyl)-2-(1-methylindolin-7-yl)pyrimidin-4-amine]

IC50 (MDA-MB-436; [2]): 23.3 nM
IC50 [1]: 2.9 nM
SMILES: COc1cnc(-c2cccnc2C(C)C)nc1NCc1ccc(-c2nc(C(F)(F)F)cn2C)cc1 [Example 157, 2-(2-Isopropylpyridin-3-yl)-5-methoxy-N-(4-(1-methyl-4-(trifluoromethyl)-1H-imidazol-2-yl)benzyl)pyrimidin-4-amine]

IC50 (MDA-MB-436; [2]): 82.1 nM
IC50 [1]: 12 nM
SMILES: Cn1cc(C(F)(F)F)nc1-c1ccc(CNc2nc(-c3cncnc3C3CC3)nc3ccoc23)cc1 [Example 196, 2-(4-Cyclopropylpyrimidin-5-yl)-N-(4-(1-methyl-4-(trifluoromethyl)-1H-imidazol-2-yl)benzyl)furo[3,2-d]pyrimidin-4-amine]

IC50 (MDA-MB-436; [2]): 14.3 nM
IC50 [1]: 13 nM
SMILES: COc1cnc(-c2c(OC)ncnc2C2CC2)nc1N(C)C[C@H]1CC[C@H](c2nc(C(F)(F)F)cn2C(C)C)CC1 [Example S26, 4'-Cyclopropyl-N-(((1R,4R)-4-(1-isopropyl-4-(trifluoromethyl)-1H-imidazol-2-yl)cyclohexyl)methyl)-5,6'-dimethoxy-N-methyl-[2,5'-bipyrimidin]-4-amine]

IC50 (MDA-MB-436; [2]): 4.7 nM
IC50 [1]: 6 nM
SMILES: COc1cnc(-c2c(OC)ncnc2C2CC2)nc1N(C)C[C@H]1CC[C@H](c2nc(C(F)(F)F)cn2C)CC1 [Example S21]

IC50 (MDA-MB-436; [2]): 354 nM
IC50 [1]: 28.6 nM
SMILES: COc1ncnc(C2CC2)c1-c1ncc(OC(C)C)c(NCC2CCN(c3nc(C(F)(F)F)cn3C)CC2)n1 [Example 110, 4'-Cyclopropyl-5-isopropoxy-6'-methoxy-N-((1-(1-methyl-4-(trifluoromethyl)-1H-imidazol-2-yl)piperidin-4-yl)methyl)-[2,5'-bipyrimidin]-4-amine]

IC50 (MDA-MB-436; [2]): 235 nM
IC50 [1]: 106 nM
SMILES: COc1cnc(-c2c(C)ncnc2OC2CC2)nc1N(C)C[C@H]1CC[C@H](c2nc(C(F)(F)F)cn2C)CC1 [Example S32]
